From US9593305B2, “Differentiation of pluripotent stem cells” (Janssen Biotech, Inc., priority 2008, dated 2017) come the findings set out here.

The assay has as its system H1 human embryonic stem cells. Kind of assay: Analog screening with GDF-8 and growth factor/agonist pool (Example 8, Tables 7 and 8). It is filed as cell-based. Details: Cell Number, % of positive control / Sox17 Expression, % of positive control: tested at 2.5 µM. The following applies: FGF, PDGF-A, VEGF, PDGF-D, muscimol, GDF8. The essentials:
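H1 hESC clusters, washed free of growth factors, fed on alternate days over 4 days with DMEM:F12, 0.5% FCS, 2.5 μM compound, 25 ng/ml GDF-8 plus a 50 ng/ml growth-factor pool. Fixed cells immunostained for SOX17 and imaged; total SOX17 intensity normalised to positive control.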

Setting [1] is: Plate 1, compound + EGF, positive control Activin A/Wnt3a.

For the compound `O=C1NCCCc2cncc(c2)-c2ncnc(n2)Nc2cccc(c2)CN2CCC[C@@H]12` [Compound 18, (18S)-3,5,7,14,20,26,30-Heptaazapentacyclo[22.3.1.1˜2,6˜1˜8,12˜0.0˜14,18˜]triaconta-1(28), 2(30), 3,5,8(29), 9,11,24,26-nonaen-19-one], for the setting “EGF”, the “Cell Number, % of positive control” value turned out to be 55.3%; the “Cell Number, Average Total Cell Number” value was determined as 8742; the “Sox17 Expression, % of positive control” value is 35.4%; the “Sox17 Expression, Average Total Intensity” value is listed as 1.01E+08. Also, where the note is “Plate 1, compound + EGF”, the “Cell Number, Average Total Cell Number” value worked out at 13037 and the “Sox17 Expression, Average Total Intensity” value stood at 1.63E+08. In addition, under setting [1], the “Cell Number, % of positive control” value is reported as 97.3 % of positive control and the “Sox17 Expression, % of positive control” value is listed as 65.2 % of positive control.
